This is an account of results in patent publication US9469804B2, “Foaming composition with wettability modifying and corrosion inhibitory properties for high temperature and ultra-high salinity” (INSTITUTO MEXICANO DEL PETROLEO, priority 2012, dated 2016).

A short description of series [1]: Foaming test at atmospheric pressure (foam stability). It is filed as physicochemical. Conditions: brine 1, 70°C, 0.2% by weight, nitrogen.
Series [2] can be described thus: Phase stability evaluation in brines with ultra-high salinity (turbidity). The conditions noted are these: 0.2% by weight, room temperature, pass limit 30 NTU. It is filed as physicochemical. The protocol:
A phase stability study was carried out for the supramolecular complexes object of the present invention, described in Examples 19, 20 and 21 and whose basic structural formula is indicated in (36).
All the products were assessed at concentration of 0.2% by weight, dissolved in different waters with high salinity and concentrations of divalent ions, through the measurement of turbidity in NTU (Nephelometric Turbidity Units). This value indicates how turbid or clear a solution/chemical product is and the higher the value, the more turbid the solution is.
The measurement is based on applying the nephelometric technique by using a photometer. The standard method is based on the comparison of the amount of light dispersed by the colloidal particles present in a sample of water with the intensity of the light emerging across the same sample.
It is worth mentioning that in order to pass this test, a value 30 NTU should not be exceeded.

On to “coco-amido-propyl-hydroxysultaine [Coco amido-propyl hydroxysultaine]”, for which the “time in which the minimum foam stability of 30% is reached” value in series [1] worked out at 60 min. For the same substance, the TURBIDITY in series [2] (BRINE 1 (salinity as NaCl 32803.9, hardness 6420 mg/L)) is on record as 1.09 NTU; in series [2] (BRINE 2 (salinity as NaCl 152974.9, hardness 35200 mg/L)), 1.68 NTU; in series [2] (BRINE 3 (salinity as NaCl 253859.1, hardness 87700 mg/L)) it was 3.9 NTU.
